In ChEMBL document CHEMBL1158793, “Taxezopidines M and N, taxoids from the Japanese yew, Taxus cuspidata” (J Nat Prod, 2005):
The source made the active and inactive calls. The calls are words filed in the database; no cut-off is given here.

Assays:
L1210 = test: Cytotoxicity against mouse L1210 cells at 10 ug/ml; format: functional, cell-based
[1] = Inhibition of CaCl2-microtubule depolymerization at 50 uM by spectrophotometry
KB = test: Cytotoxicity against human KB cells at 10 ug/ml; format: functional, cell-based
[2] = Inhibition of CaCl2-induced microtubule depolymerization at 5 uM by spectrophotometry

| Activity [1] | Activity [2] | SMILES | Activity (L1210) | Activity (KB) |
| --- | --- | --- | --- | --- |
| Active | – | C=C1[C@@H](OC(=O)C[C@H](c2ccccc2)N(C)C)CC[C@@]2(C)[C@@H](OC(C)=O)[C@H](OC(C)=O)C3=C(C)[C@]4(O)C[C@@H]([C@@H](OC(C)=O)[C@H]12)[C@@]3(C)CO4 | inactive | inactive |
| – | Active | CC(=O)O[C@H]1C(=O)[C@@]2(C)[C@H]([C@H](OC(=O)c3ccccc3)[C@]3(O)C[C@H](OC(=O)[C@H](O)[C@@H](NC(=O)c4ccccc4)c4ccccc4)C(C)=C1C3(C)C)[C@]1(OC(C)=O)CO[C@@H]1C[C@@H]2O | – | – |
| – | – | C=C1[C@@H](OC(=O)C[C@H](c2ccccc2)N(C)C)C[C@H](OC(C)=O)[C@@]2(C)[C@@H](OC(C)=O)[C@H](OC(C)=O)[C@]3(O)[C@@]4(C)CO[C@]3(C)C(=O)C[C@H]4[C@@H](OC(C)=O)[C@H]12 | inactive | inactive |
